Results published in US20250144067A1, “PERSONALIZED STARVATION THERAPY FOR CANCER” (Faeth Therapeutics, Inc., priority 2021, published 2025).
Structures can show the parent of a compound that is named as a salt.

Columns and labels:
[1] = system: NCI-H292 lung cancer cells; test: FDA drug screening, complete media vs cholesterol-free media without statin (TABLE 1); assay type: cell-based, human
[2] = system: NCI-H292 lung cancer cells; test: FDA drug screening, complete media vs cholesterol-free media with simvastatin (TABLE 2); assay type: cell-based, human; details: for Cholesterol-free media + simvastatin (0.04 μM) / Complete Media: NCI-H292 cells
[3] = Complete minus Cholesterol-free, greater than 0 enhanced anti-cancer activity, about 0 neutral, below 0 antagonists
[4] = NCI-H292 cells in cholesterol-free media without statin
[5] = NCI-H292 cells in complete media
[6] = FDA library drug in cholesterol-free media with simvastatin 0.04 μM
[7] = FDA library drug in complete media
[8] = complete media vs cholesterol-free media + simvastatin (0.04 μM), >0 enhanced anti-cancer activity, about 0 neutral, <0 antagonist
[9] = Complete minus Cholesterol-free, […]
[10] = NCI-H292 cells, cholesterol-free media without statin, FDA drug library screen
[11] = NCI-H292 cells, complete media, FDA drug library screen
[12] = cholesterol-free media with simvastatin 0.04 μM, FDA drug library screen (TABLE 2)
[13] = complete media, FDA drug library screen (TABLE 2)
[14] = NCI-H292 cells, cholesterol-free media without statin
[15] = FDA drug library screen, cholesterol-free media with simvastatin 0.04 μM
[16] = FDA drug library screen, complete media
[17] = complete vs cholesterol-free media, >0 enhanced anti-cancer activity, about 0 neutral, <0 antagonist
[18] = complete media minus cholesterol-free media + simvastatin, >0 enhanced anti-cancer activity, about 0 neutral, <0 antagonist
[19] = complete media minus cholesterol-free media + simvastatin (0.04 μM), >0 enhanced anti-cancer activity, about 0 neutral, <0 antagonist
[20] = complete vs cholesterol-free media, greater than 0 enhanced anti-cancer activity, about 0 neutral, below 0 antagonists

## CCN(CC)C(=O)c1ccc(O)c(OC)c1 [Etamivan]
[1]; [3]
  Difference: −0.50
[1]; [4]
  Cholesterol-free: 1.483
[1]; [5]
  Complete: 0.9848
[2]; [6]
  Cholesterol-free media + simvastatin (0.04 μM): 1.227
[2]; [7]
  Complete Media: 0.9141
[2]; [8]
  Difference: −0.31

## CC(O)C(=O)O.CCOc1ccc2nc3cc(N)ccc3c(N)c2c1.O [Ethacridine (lactate monohydrate)]
[1]; [9]
  Difference: −0.05
[1]; [10]
  Cholesterol-free: 0.2006
[1]; [11]
  Complete: 0.1519
[2]; [12]
  Cholesterol-free media + simvastatin (0.04 μM): 0.1737
[2]; [13]
  Complete Media: 0.1706
[2]; complete media minus cholesterol-free media + simvastatin (0.04 μM), […]
  Difference: 0.00

## CC(O)C(=O)O.CCOc1ccc2nc3cc(N)ccc3c(N)c2c1 [Ethacridine (lactate)]
[1]; [9]
  Difference: −0.28
[1]; [14]
  Cholesterol-free: 0.3206
[1]; NCI-H292 cells, complete media
  Complete: 0.04483
[2]; [15]
  Cholesterol-free media + simvastatin (0.04 μM): 0.2653
[2]; [16]
  Complete Media: 0.1668
[2]; complete media vs cholesterol-free media + simvastatin (0.04 μM), […]
  Difference: −0.10

## C=C(CC)C(=O)c1ccc(OCC(=O)O)c(Cl)c1Cl [Ethacrynic acid]
[1]; [10]
  Cholesterol-free: 0.8126
[1]; [11]
  Complete: 0.956
[1]; [17]
  Difference: 0.14
[2]; cholesterol-free media with simvastatin 0.04 μM, cell growth value in FDA drug screen
  Cholesterol-free media + simvastatin (0.04 μM): 1.155
[2]; complete media, cell growth value in FDA drug screen
  Complete Media: 1.268
[2]; [18]
  Difference: 0.11

## CC[C@@H](CO)NCCN[C@@H](CC)CO [Ethambutol (dihydrochloride)]
[1]; [10]
  Cholesterol-free: 0.4829
[1]; [11]
  Complete: 1.206
[1]; [17]
  Difference: 0.72
[2]; [6]
  Cholesterol-free media + simvastatin (0.04 μM): 1.428
[2]; [7]
  Complete Media: 1.016
[2]; [8]
  Difference: −0.41

## O=S(=O)(O)c1cc(O)ccc1O [Ethamsylate]
[1]; [3]
  Difference: −0.53
[1]; [4]
  Cholesterol-free: 1.652
[1]; [5]
  Complete: 1.118
[2]; [15]
  Cholesterol-free media + simvastatin (0.04 μM): 1.397
[2]; [16]
  Complete Media: 1.245
[2]; [8]
  Difference: −0.15

## CCc1cc(C(N)=S)ccn1 [Ethionamide]
[1]; [3]
  Difference: −0.66
[1]; [4]
  Cholesterol-free: 1.516
[1]; [5]
  Complete: 0.857
[2]; [12]
  Cholesterol-free media + simvastatin (0.04 μM): 1.611
[2]; [13]
  Complete Media: 1.611
[2]; [19]
  Difference: 0.00

## CCC1(C)CC(=O)NC1=O (stereo not drawn) [Ethosuximide]
[1]; Complete minus Cholesterol-free, >0 enhanced anti-cancer activity, about 0 neutral, <0 antagonist
  Difference: −0.24
[1]; [14]
  Cholesterol-free: 1.124
[1]; NCI-H292 cells, complete media
  Complete: 0.884
[2]; [15]
  Cholesterol-free media + simvastatin (0.04 μM): 1.133
[2]; [16]
  Complete Media: 0.9952
[2]; [8]
  Difference: −0.14

## CCOc1ccc2nc(S(N)(=O)=O)sc2c1 [Ethoxzolamide]
[1]; [14]
  Cholesterol-free: 1.33
[1]; NCI-H292 cells, complete media
  Complete: 0.9909
[1]; [20]
  Difference: −0.34
[2]; [15]
  Cholesterol-free media + simvastatin (0.04 μM): 1.137
[2]; [16]
  Complete Media: 1.016
[2]; [8]
  Difference: −0.12

## CCOC(=O)c1ccc(O)cc1 [Ethylparaben]
[1]; [10]
  Cholesterol-free: 1.065
[1]; [11]
  Complete: 1.563
[1]; [17]
  Difference: 0.50
[2]; [15]
  Cholesterol-free media + simvastatin (0.04 μM): 1.326
[2]; [16]
  Complete Media: 1.517
[2]; [18]
  Difference: 0.19

## C#C[C@]1(OC(C)=O)CC[C@H]2[C@@H]3CCC4=C[C@@H](OC(C)=O)CC[C@@H]4[C@H]3CC[C@@]21C [Ethynodiol diacetate]
[1]; [3]
  Difference: −0.50
[1]; [4]
  Cholesterol-free: 1.654
[1]; [5]
  Complete: 1.155
[2]; [6]
  Cholesterol-free media + simvastatin (0.04 μM): 1.26
[2]; [7]
  Complete Media: 0.9323
[2]; [8]
  Difference: −0.33

## C#C[C@]1(O)CC[C@H]2[C@@H]3CCc4cc(O)ccc4[C@H]3CC[C@@]21C [Ethynyl Estradiol]
[1]; [10]
  Cholesterol-free: 0.8735
[1]; [11]
  Complete: 1.393
[1]; [17]
  Difference: 0.52
[2]; drug in cholesterol-free media with simvastatin 0.04 μM
  Cholesterol-free media + simvastatin (0.04 μM): 1.254
[2]; drug in complete media
  Complete Media: 1.055
[2]; [8]
  Difference: −0.20

## CC(O)(P(=O)(O)O)P(=O)(O)O [Etidronic acid]
[1]; [14]
  Cholesterol-free: 1.196
[1]; NCI-H292 cells, complete media
  Complete: 0.8527
[1]; [20]
  Difference: −0.34
[2]; [12]
  Cholesterol-free media + simvastatin (0.04 μM): 0.8968
[2]; [13]
  Complete Media: 0.9014
[2]; [19]
  Difference: 0.00

## CCc1cccc2c3c([nH]c12)C(CC)(CC(=O)O)OCC3 (stereo not drawn) [Etodolac]
[1]; [14]
  Cholesterol-free: 1.251
[1]; NCI-H292 cells, complete media
  Complete: 0.9193
[1]; [20]
  Difference: −0.33
[2]; [15]
  Cholesterol-free media + simvastatin (0.04 μM): 0.9939
[2]; [16]
  Complete Media: 1.145
[2]; [18]
  Difference: 0.15
